According to patent US9260760B2, “Method for determining complete response to anticancer therapy” (Board of Regents, The University of Texas System, priority 2012, dated 2016):
“And” between values parts separate entries of the source, which are not always exact repeats. Identical values can stand only once.

Assays:
Type in all cases: in vivo, human
[1] = tested on: unresectable metastatic colorectal cancer; test: Study 3: maintenance XCEL after CR; RFS, PFS, OS
Excerpt: The institutional review board approved this study. […] All patients had clinical examinations, laboratory and CT scan every 2-3 months.
The principal investigator and two board-certified radiologists reviewed all the CT scan images. CR was defined according to the RECIST criteria as complete disappearance of measurable or none-measurable disease. Effective CR (eCR) was coined to describe normalization of an anatomical structure (e.g. nodes) that cannot regress completely. Confirmed CR included those patients who had CR by meeting the RECIST criteria or had achieved eCR or pathological CR. Near CR (nCR) were defined as almost complete disappearance (95-99%) of measurable disease on CT scan. Relapse free survival (RFS) was defined as the time from first radiologic CR to first recurrence, progression, or death. […] […] Treatment related toxicity was graded in accordance with the National Cancer Institute Common Toxicity Criteria for Adverse Events, version 3.0.
Continuous variables were summarized using the median (range) and categorical variables were summarized in frequency tables. Patients were censored at the date of last follow-up if their disease had not progressed or if they had not died. The death date was ascertained by searching (ssdi.genealogy.rootsweb.com) using social security numbers or phone follow-up. Therefore, it was possible for censored OS times to be greater than censored RFS and PFS times. Kaplan-Meier estimates for RFS, PFS, and OS were calculated, and group comparisons made using log-rank tests.

[2] = Study 1: treatment-related toxicity of XCEL (CTC version 2.0)
Excerpt: The radiation was delivered to the target area using 18 MV photons with 3-D conformal planning technique. The dose of radiation was either 35-40 Gy (n=18) or >45 Gy (n=15) with dose radiation missing in one patient. […] Celecoxib was continued with capecitabine to prevent HFS and to improve survival.
All patients were subjected to routine clinical examinations, laboratory analyses, and computed tomography. Patients were seen weekly during radiotherapy if treated on site or every 6-9 weeks with physical examinations, laboratory tests, and computed tomography. Treatment-related toxicity was graded using the National Institutes of Health's Common Toxicities Criteria (CTC) version 2.0. Tumor responses were evaluated using RECIST criteria. […] Overall response rate was defined as the sum of the complete and partial response rates and the tumor control rate was defined as the sum of overall response rates with stable disease rates. The date of death was ascertained through the cancer registry or through a search of patients' social security numbers in the Social Security Death Index (ssdi.genealogy.rootsweb.com).

[3] = Study 2: treatment-related toxicity of XCEL (CTCAE version 3.0)
Description: This retrospective study was approved by the institutional review board of The University of Texas M. D. Anderson Cancer Center. All sixty-six patients received concurrent capecitabine (Xeloda, Roche Nutley, N.J.) at mean daily dose 1000 mg/m^2/d bid for 14 days every 21 days or Monday-through Friday with radiation with daily celecoxib (CELEBREX®, Pfizer, N.Y.) at 200 mg PO b.i.d. from October 2000 to December 2003.
All patients were subjected to routine clinical examinations, laboratory analyses, and computed tomography before receiving XCEL described previously. All patient data were to be independently audited and radiographic images depicting CR were reviewed and agreed upon by two independent radiologists. All 19 patients had pathological confirmation of metastatic cancer ( ). Treatment-related toxicity was graded using the National Institutes of Health's Common Terminology Criteria for Adverse Events, version 3.0. Tumor responses were evaluated using RECIST criteria with complete response defined as complete radiographic disappearance of measurable or evaluable disease and normalization of tumor marker. The death date was ascertained by searching (ssdi.genealogy.rootsweb.com) using social security numbers. The cutoff point for collection of survival was October 2005.

[4] = Disease-free interval prior to metastasis <6 mo
[5] = Disease-free interval prior to metastasis ≧6 mo
[6] = Response to first-line therapy no
[7] = Response to first-line therapy yes

SMILES: Cc1ccc(-c2cc(C(F)(F)F)nn2-c2ccc(S(N)(=O)=O)cc2)cc1 [XCEL]
- pathological CR rate (observed) ([1]; 1/19): 5%
- two-year RFS ([1]; 14 unresected and R1-2 resected patients): 71%
- 2-year RFS (95% CI) ([1]; All patients): 0.57 (0.39, 0.85)
- 3-year OS (95% CI) ([1]; All patients): 0.79 (0.59, 1.00)
- 2-year RFS (95% CI) [1, 4]: 0.64 (0 44, 1.00)
- 3-year OS (95% CI) [1, 4]: 0.75 (0.54, 1.00)
- 2-year RFS (95% CI) [1, 5]: 0.50 (0.28, 0.88)
- 3-year OS (95% CI) [1, 5]: 0.74 (0.39, 1.00)
- 2-year RFS (95% CI) ([1]; Extrahepatic no): 0.52 (0.15, 1.00)
- 3-year OS (95% CI) ([1]; Extrahepatic no): 0.79 (0.66, 1.00)
- 2-year RFS (95% CI) ([1]; Extrahepatic yes): 0.50 (.20, 1.00)
- 3-year OS (95% CI) ([1]; Extrahepatic yes): 0.67 (0.55, 1.00)
- 2-year RFS (95% CI) ([1]; LDH Abnormal): 0.33 (0.07, 1.00)
- 3-year OS (95% CI) ([1]; LDH Abnormal): 0.50 (0.13, 1.00)
- 2-year RFS (95% CI) ([1]; LDH Normal): 0.62 (0.42, 0.91)
- 3-year OS (95% CI) ([1]; LDH Normal): 0.85 (0.68, 1.00)
- 2-year RFS (95% CI) ([1]; Maintenance XCEL no): 0.00
- 3-year OS (95% CI) ([1]; Maintenance XCEL no): 0.38 (0.08, 1.00)
- 2-year RFS (95% CI) ([1]; Metastatic Number non-solitary): 0.60 (0.36, 1.00)
- 3-year OS (95% CI) ([1]; Metastatic Number non-solitary): 0.60 (0 29, 1.00)
- 2-year RFS (95% CI) ([1]; Metastatic Number solitary): 0.56 (0.31, 1.00)
- 3-year OS (95% CI) ([1]; Metastatic Number solitary): 0.89 (0.71, 1.00)
- 2-year RFS (95% CI) ([1]; Metastectomy R0): 0.20 (0.03, 1.00)
- 3-year OS (95% CI) ([1]; Metastectomy R0): 0.60 (0.29, 1.00)
- 2-year RFS (95% CI) ([1]; Metastectomy none/R1-2): 0.71 (0.51, 0.99)
- 3-year OS (95% CI) ([1]; Metastectomy none/R1-2): 0.60 (0.80, 1.00)
- 3-year PFS ([1]; R0-2 resected patients): 37%
- two-year RFS ([1]; R0 resected patients excluding the one pathological CR patient): 0%
- 2-year RFS (95% CI) ([1]; Radiation no): 0.69 (1.40, 1.00)
- 3-year OS (95% CI) ([1]; Radiation no): 0.75 (0.43, 1.00)
- 2-year RFS (95% CI) ([1]; Radiation yes): 0.50 (0.28, 0.88)
- 3-year OS (95% CI) ([1]; Radiation yes): 0.79 (0.56, 1.00)
- 2-year RFS (95% CI) [1, 6]: 0.40 (0.25, 1.00)
- 3-year OS (95% CI) [1, 6]: 0.65 (0.49, 1.00)
- 2-year RFS (95% CI) [1, 7]: 0.58 (0.39, 1.00)
- 3-year OS (95% CI) [1, 7]: 1.00
- 2-year RFS (95% CI) ([1]; Stage at Diagnosis II/III): 0.40 (0.19, 0.85)
- 3-year OS (95% CI) ([1]; Stage at Diagnosis II/III): 0.77 (0.53, 1.00)
- 2-year RFS (95% CI) ([1]; Stage at Diagnosis IV): 0.78 (0.55, 1.00)
- 3-year OS (95% CI) ([1]; Stage at Diagnosis IV): 0.83 (0.58, 1.00)
- 2-year RFS (95% CI) ([1]; Tumor size <8 cm): 0.62 (0.39, 1.00)
- 3-year OS (95% CI) ([1]; Tumor size <8 cm): 1.00
- 2-year RFS (95% CI) ([1]; Tumor size ≧8 cm): 0.40 (0.14, 1.00)
- 3-year OS (95% CI) ([1]; Tumor size ≧8 cm): 0.60 (0.29, 1.00)
- Two-year RFS ([1]; all 19 patients): 57%
- median RFS ([1]; all 19 patients): not reached
- CEA or CA19.9 during CR ([1]; all patients with elevated serum CEA or CA19.9): normalized
- 3-year PFS ([1]; confirmed CR patients): 100%
- CR ([1]; eight of nine first-line irinotecan responders, XCEL alone or with radiation): 88%
- two-year RFS ([1]; five R0 resected patients): 20%
- estimated 3-year survival rate ([1]; from CR): 79%
- four year OS ([1]; from CR, maintenance XCEL): 93%
- median OS ([1]; from XCEL): 51.9 months
- estimated 3-year survival rate ([1]; from diagnosis): 95%
- median OS ([1]; from onset of metastasis): 73.3 months
- median time from CR to relapse ([1]; in vivo): 13.1 months
- relapse while on XCEL ([1]; maintenance XCEL): no patient relapsed while on XCEL
- Two-year RFS estimate ([1]; maintenance XCEL group): 73%
- 3-year PFS ([1]; unconfirmed CR patients): 0%
- 3 year RFS ([1]; whole cohorts): 57%
- Two-year RFS estimate ([1]; without maintenance XCEL): 0%
- Mild serum creatinine elevations ([2]; 3 patients after 14 to 32 months of XCEL, reversible upon discontinuation of celecoxib): 1.6 to 2.0 mg/dL
- grade ⅔ HFS ([2]; expanded study with longer follow up): 17%
- gastrointestinal bleeding, other cardiovascular events, deaths ([2]; in vivo): No gastrointestinal bleeding, other cardiovascular events, or deaths were noted
- median time to HFS peak ([2]; n=12): 6.0 months and 6 months
- median time to HFS onset ([2]; n=17): 3.8 months
- Incidence of grade 1 HFS ([2]; n=65): 14%
- Incidence of grade 2 HFS ([2]; n=65): 15%
- Incidence of grade 3 HFS ([2]; n=65): 2%
- grade ¾ lymphopenia ([2]; n=65): 24%
- lymphopenia of all grades ([2]; n=65): 56%
- mean peak MCV increase before and after XCEL ([3]; compliant patients): 10
- Hematologic toxicities ([3]; in vivo): limited to grade 1 neutropenia and thrombocytopenia
- grade ½ HFS ([3]; in vivo): 28%
- grade ½ diarrhea ([3]; in vivo): 44%
- grade ¾ lymphopenia ([3]; in vivo): 28%
- Median increase in mean corpuscular volume (MCV) before and after XCEL ([3]; range 5-20): 10
